Source: EP0360258B1, “Amino acid quinoline and naphthyridine derivatives” (ABBOTT LABORATORIES, priority 1988, dated 1990)
Values after ≈ are worked out from the molar mass of the structure shown. Where a name gives a salt, the structure may show the parent alone. Read-outs that look alike come from different tables or passages of the source.

What was measured:
Stap. Aureus CMX 553 = assay: Second in vitro antibacterial test, MIC (BHIB); type: cell-based; settings: Brain Heart Infusion Broth (BHIB)
Strep. pyogenes EES 61 = assay: Second in vitro antibacterial test, MIC (BHIB); type: cell-based
E.Coli Juhl = assay: Second in vitro antibacterial test, MIC (BHIB); type: cell-based; settings: Brain Heart Infusion Broth (BHIB)
Ps.Aeruginosa A5007 = assay: Second in vitro antibacterial test, MIC (BHIB); type: cell-based; settings: Brain Heart Infusion Broth (BHIB)
[1] = Staphylococcus aureus, read-out: MIC
[2] = Streptococcus pyogenes, EES61, Brain Heart Infusion Broth (BHIB), read-out: MIC
[3] = Escherichia coli, read-out: MIC
[4] = Pseudomonas aeruginosa, read-out: MIC
[5] = Brain Heart Infusion Broth (BHIB)

SMILES | solubility (physchem; pH 7.4) [µg/mL] | solubility (physchem; water) [µg/mL] | MIC (Stap. Aureus CMX 553; [1]) [µg/mL] | MIC (E.Coli Juhl; [3]) [µg/mL] | MIC (Ps.Aeruginosa A5007; [4]) [µg/mL] | also measured
NC1CCN(c2nc3c(cc2F)c(=O)c(C(=O)O)cn3-c2ccc(F)cc2)C1 (stereo not drawn) [A, 7-(3-amino-1-pyrrolidinyl)-6-fluoro-1-(4-fluorophenyl)-1,4-dihydro-4-oxo-1,8-naphthyridine-3-carboxylic acid, reference compound] | 14 (≈ 36.2 µM) | 1400 (≈ 3620 µM) | – | – | – | –
CCC[C@H](NC(=O)[C@@H](N)CCC)C(=O)NC1CCN(c2nc3c(cc2F)c(=O)c(C(=O)O)cn3-c2ccc(F)cc2F)C1 (stereo partly drawn) [Example 3b, 7-(3-L-Norvaline-L-Norvalineamino-1-pyrrolidinyl)-1-(2,4-difluorophenyl)-6-fluoro-1,4-dihydro-4-oxo-1,8-naphthyridine-3-carboxylic acid hydrochloride] | 680 | > 40000 | 12.5 | 25 | 50 | MIC (Strep. pyogenes EES 61; [2]): 12.5 µg/mL
NCC(=O)NC1CCN(c2nc3c(cc2F)c(=O)c(C(=O)O)cn3-c2ccc(F)cc2F)C1 (stereo not drawn) [Example 7] | – | – | 1.56 (≈ 3.38 µM) | 0.78 (≈ 1.69 µM) | 12.5 (≈ 27.1 µM) | MIC (Strep. pyogenes EES 61; [2]): 0.78 µg/mL (≈ 1.69 µM)
CC(N)C(=O)NC(Cc1ccccc1)C(=O)NC1CCN(c2nc3c(cc2F)c(=O)c(C(=O)O)cn3-c2ccc(F)cc2F)C1 (stereo not drawn) [Example 11] | 590 (≈ 948 µM) | > 20000 | 16 (≈ 25.7 µM) | 16 (≈ 25.7 µM) | 128 (≈ 206 µM) | –
NC(Cc1ccc(O)cc1)C(=O)NC1CCN(c2nc3c(cc2F)c(=O)c(C(=O)O)cn3-c2ccc(F)cc2F)C1 (stereo not drawn) [Example 13] | 60 (≈ 106 µM) | > 90000 | 12.5 (≈ 22 µM) | 12.5 (≈ 22 µM) | 50 (≈ 88.1 µM) | MIC (Strep. pyogenes EES 61; [2]): 12.5 µg/mL (≈ 22 µM)
CC(N)C(=O)NC1CCN(c2nc3c(cc2F)c(=O)c(C(=O)O)cn3-c2ccc(F)cc2F)C1 (stereo not drawn) [Example 17] | 120 (≈ 252 µM) | > 20000 | 2 (≈ 4.21 µM) | 0.5 (≈ 1.05 µM) | 16 (≈ 33.7 µM) | –
CC(C)C(N)C(=O)NC1CCN(c2nc3c(cc2F)c(=O)c(C(=O)O)cn3-c2ccc(F)cc2F)C1 (stereo not drawn) [Example 19] | 410 (≈ 814 µM) | > 10000 | – | – | – | –
CC(C)CC(N)C(=O)NC1CCN(c2nc3c(cc2F)c(=O)c(C(=O)O)cn3-c2ccc(F)cc2F)C1 (stereo not drawn) [Example 21] | 140 (≈ 271 µM) | > 35000 | 1.56 (≈ 3.01 µM) | 1.56 (≈ 3.01 µM) | 25 (≈ 48.3 µM) | MIC (Strep. pyogenes EES 61; [2]): 6.2 µg/mL (≈ 12 µM)
CSCCC(N)C(=O)NC1CCN(c2nc3c(cc2F)c(=O)c(C(=O)O)cn3-c2ccc(F)cc2F)C1 (stereo not drawn) [Example 23] | – | – | 3.12 (≈ 5.83 µM) | 3.12 (≈ 5.83 µM) | 5 (≈ 9.34 µM) | MIC (Strep. pyogenes EES 61; [2]): 3.12 µg/mL (≈ 5.83 µM)
CCCC(N)C(=O)NC1CCN(c2cc3c(cc2F)c(=O)c(C(=O)O)cn3-c2ccc(F)cc2F)C1 (stereo not drawn) [Example 26b] | – | – | – | – | – | MIC (Stap. Aureus CMX 553): 0.39 µg/mL (≈ 0.776 µM); MIC (Strep. pyogenes EES 61; [5]): 1.56 µg/mL (≈ 3.1 µM); MIC (E.Coli Juhl): 0.78 µg/mL (≈ 1.55 µM); MIC (Ps.Aeruginosa A5007): 6.2 µg/mL (≈ 12.3 µM)
CCC[C@H](N)C(=O)NC1CCN(c2nc3c(cc2F)c(=O)c(C(=O)O)cn3CC)C1 (stereo partly drawn) [Example 26ff] | – | – | – | – | – | MIC (Stap. Aureus CMX 553): 1.56 µg/mL (≈ 3.72 µM); MIC (Strep. pyogenes EES 61; [5]): 6.2 µg/mL (≈ 14.8 µM); MIC (E.Coli Juhl): 1.56 µg/mL (≈ 3.72 µM); MIC (Ps.Aeruginosa A5007): 12.5 µg/mL (≈ 29.8 µM)
CCCC(N)C(=O)NC1CCN(c2cc3c(cc2F)c(=O)c(C(=O)O)cn3-c2ccc(F)cc2)C1 (stereo not drawn) [Example 26h] | – | – | – | – | – | MIC (Stap. Aureus CMX 553): 0.78 µg/mL (≈ 1.61 µM); MIC (Strep. pyogenes EES 61; [5]): 1.56 µg/mL (≈ 3.22 µM); MIC (E.Coli Juhl): 0.78 µg/mL (≈ 1.61 µM); MIC (Ps.Aeruginosa A5007): 6.2 µg/mL (≈ 12.8 µM)
Cl.NCC(=O)N[C@@H](Cc1ccccc1)C(=O)NC1CCN(c2cc3c(cc2F)c(=O)c(C(=O)O)cn3-c2ccc(F)cc2F)C1 (stereo partly drawn) [Example 26jj, 1-(2,4-Difluorophenyl)-6-Fluoro-7-(3-Gly-L-Phe -Amino-1-Pyrrolidinyl)-1,4-Dihydro-4-Oxo-Quinoline-3-Carboxylic Acid Hydrochloride] | – | – | – | – | – | MIC (Stap. Aureus CMX 553): 16 µg/mL; MIC (Strep. pyogenes EES 61; [5]): 32 µg/mL; MIC (E.Coli Juhl): 16 µg/mL; MIC (Ps.Aeruginosa A5007): 64 µg/mL
CC(C)CC(N)C(=O)NC1CCN(c2nc3c(cc2F)c(=O)c(C(=O)O)cn3C2CC2)C1 (stereo not drawn) [Example 26o] | – | – | – | – | – | MIC (Stap. Aureus CMX 553): 0.39 µg/mL (≈ 0.875 µM); MIC (Strep. pyogenes EES 61; [5]): 3.1 µg/mL (≈ 6.96 µM); MIC (E.Coli Juhl): 0.2 µg/mL (≈ 0.449 µM); MIC (Ps.Aeruginosa A5007): 1.56 µg/mL (≈ 3.5 µM)
CCCC(N)C(=O)NC1CCN(c2nc3c(cc2F)c(=O)c(C(=O)O)cn3C2CC2)C1 (stereo not drawn) [Example 26p] | – | – | – | – | – | MIC (Stap. Aureus CMX 553): 0.39 µg/mL (≈ 0.904 µM); MIC (Strep. pyogenes EES 61; [5]): 3.1 µg/mL (≈ 7.18 µM); MIC (Ps.Aeruginosa A5007): 1.56 µg/mL (≈ 3.62 µM)
O=C(O)c1cn(-c2ccc(F)cc2F)c2nc(N3CCC(NC(=O)C4CCCN4)C3)c(F)cc2c1=O (stereo not drawn) [Example 28] | – | – | 1.56 (≈ 3.11 µM) | 1.56 (≈ 3.11 µM) | 12.5 (≈ 24.9 µM) | MIC (Strep. pyogenes EES 61; [2]): 1.56 µg/mL (≈ 3.11 µM)
CCC[C@H](NC(=O)CNC(=O)CN)C(=O)NC1CCN(c2nc3c(cc2F)c(=O)c(C(=O)O)cn3-c2ccc(F)cc2F)C1 (stereo partly drawn) [Example 30] | – | – | 25 (≈ 40.5 µM) | 25 (≈ 40.5 µM) | > 100 | MIC (Strep. pyogenes EES 61; [2]): 100 µg/mL (≈ 162 µM)
NC(=O)C[C@H](N)C(=O)NC1CCN(c2nc3c(cc2F)c(=O)c(C(=O)O)cn3-c2ccc(F)cc2F)C1 (stereo partly drawn) [Example 41, 7-(3-L-Asparagine-amino-1-pyrrolidinyl)-1-(2,4-difluorophenyl)-6-fluoro-1,4-dihydro-4-oxo-1,8-naphthyridine-3-carboxylic acid hydrochloride] | 400 | > 35000 | – | – | – | –
N[C@@H](CC(=O)O)C(=O)NC1CCN(c2nc3c(cc2F)c(=O)c(C(=O)O)cn3-c2ccc(F)cc2F)C1 (stereo partly drawn) [Example 45, 7-(3-L-Asp-amino-1-pyrrolidinyl)-1-(2,4-difluorophenyl)-6-fluoro-1,4-dihydro-4-oxo-1,8-naphthyridine-3-carboxylic acid hydrochloride] | 2400 | 4100 | – | – | – | –
Cl.Cl.NCCCC[C@H](N)C(=O)NC1CCN(c2nc3c(cc2F)c(=O)c(C(=O)O)cn3-c2ccc(F)cc2F)C1 (stereo partly drawn) [Example 46, 7-(3-Lys-amino-1-pyrrolidinyl)-1-(2,4-difluorophenyl)-6-fluoro-1,4-dihydro-4-oxo-1,8-naphthyridine-3-carboxylic acid dihydrochloride] | – | – | – | – | – | MIC (Stap. Aureus CMX 553): 100 µg/mL; MIC (Strep. pyogenes EES 61; [5]): 100 µg/mL; MIC (E.Coli Juhl): 3.12 µg/mL; MIC (Ps.Aeruginosa A5007): >100 µg/mL
CCC[C@H](NC(=O)CN)C(=O)NC1CCN(c2nc3c(cc2F)c(=O)c(C(=O)O)cn3-c2ccc(F)cc2F)C1 (stereo partly drawn) [Example 52] | 80 (≈ 143 µM) | 6890 (≈ 12300 µM) | – | – | – | –
CCC[C@H](NC(=O)[C@H](C)N)C(=O)NC1CCN(c2nc3c(cc2F)c(=O)c(C(=O)O)cn3-c2ccc(F)cc2F)C1 (stereo partly drawn) [Example 55b, 7-(3-Ala-Nval-amino-1-pyrrolidinyl)-6-fluoro-1-(2,4-difluorophenyl)-1,4-dihydro-4-oxo-1,8-naphthyridine-3-carboxylic acid] | 1030 (≈ 1790 µM) | 26000 (≈ 45300 µM) | – | – | – | –
CSCC[C@H](NC(=O)[C@H](C)N)C(=O)NC1CCN(c2nc3c(cc2F)c(=O)c(C(=O)O)cn3-c2ccc(F)cc2F)C1 (stereo partly drawn) [Example 55n, 7-(3-Ala-Met-amino-1-pyrrolidinyl)-6-fluoro-1-(2,4-difluorophenyl)-1,4-dihydro-4-oxo-1,8-naphthyridine-3-carboxylic acid] | 2500 (≈ 4120 µM) | 20000 (≈ 33000 µM) | – | – | – | –
CSCC[C@H](NC(=O)[C@@H](N)CCSC)C(=O)NC1CCN(c2nc3c(cc2F)c(=O)c(C(=O)O)cn3-c2ccc(F)cc2F)C1 (stereo partly drawn) [Example 55o, 7-(3-Met-Met-amino-1-pyrrolidinyl)-6-fluoro-1-(2,4-difluorophenyl)-1,4-dihydro-4-oxo-1,8-naphthyridine-3-carboxylic acid] | 310 (≈ 465 µM) | 22000 (≈ 33000 µM) | – | – | – | –
CSCC[C@H](NC(=O)[C@@H](N)CC(C)C)C(=O)NC1CCN(c2nc3c(cc2F)c(=O)c(C(=O)O)cn3-c2ccc(F)cc2F)C1 (stereo partly drawn) [Example 55p, 7-(3-Leu-Met-amino-1-pyrrolidinyl)-6-fluoro-1-(2,4-difluorophenyl)-1,4-dihydro-4-oxo-1,8-naphthyridine-3-carboxylic acid] | 60 (≈ 92.5 µM) | 23000 (≈ 35500 µM) | – | – | – | –
CC(C)C[C@H](NC(=O)[C@@H](N)CC(C)C)C(=O)NC1CCN(c2nc3c(cc2F)c(=O)c(C(=O)O)cn3-c2ccc(F)cc2F)C1 (stereo partly drawn) [Example 55q, 7-(3-Leu-Leu-amino-1-pyrrolidinyl)-6-fluoro-1-(2,4-difluorophenyl)-1,4-dihydro-4-oxo-1,8-naphthyridine-3-carboxylic acid] | 190 (≈ 301 µM) | 19000 (≈ 30100 µM) | – | – | – | –
CC(C)C[C@H](NC(=O)[C@H](C)N)C(=O)NC1CCN(c2nc3c(cc2F)c(=O)c(C(=O)O)cn3-c2ccc(F)cc2F)C1 (stereo partly drawn) [Example 55r, 7-(3-Ala-Leu-amino-1-pyrrolidinyl)-6-fluoro-1-(2,4-difluorophenyl)-1,4-dihydro-4-oxo-1,8-naphthyridine-3-carboxylic acid] | 2000 (≈ 3400 µM) | 26000 (≈ 44200 µM) | – | – | – | –
